# According to PubChem BioAssay AID1963843 (Molecular Pharmacology Branch, DTP, NCI, 2024):
# System: 616215-338-R-J1-PDC complex spheroid viability
# Test: Anticancer human tumor 616215-338-R-J1-PDC patient-derived colon adenocarcinoma cell line growth inhibition [POLQ]
# Settings: for IC50: curve of first compound; for viability, T/C: stronger effect = lower value
# Outline: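 Growth inhibition in 3D: complex spheroids (tumor PDC, HUVEC, MSC) treated with POLQ inhibitor combinations; where Cmax unknown, highest tested concentration 10 microM, except SN-38 at 1 microM.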
# [1] = second compound 0.0316 µM, first compound 0.00316 µM
# [2] = second compound 0.0316 µM, first compound 0.01 µM
# [3] = second compound 0.0316 µM, first compound 0.0316 µM
# [4] = second compound 0.0316 µM, first compound 0.1 µM
# [5] = second compound 0.1 µM, first compound 0.00316 µM
# [6] = second compound 0.1 µM, first compound 0.01 µM
# [7] = second compound 0.1 µM, first compound 0.0316 µM
# [8] = second compound 0.1 µM, first compound 0.1 µM
# [9] = second compound 0.316 µM, first compound 0.00316 µM
# [10] = second compound 0.316 µM, first compound 0.01 µM
# [11] = second compound 0.316 µM, first compound 0.0316 µM
# [12] = second compound 0.316 µM, first compound 0.1 µM
# [13] = second compound 1 µM, first compound 0.00316 µM
# [14] = second compound 1 µM, first compound 0.01 µM
# [15] = second compound 1 µM, first compound 0.0316 µM
# [16] = second compound 1 µM, first compound 0.1 µM
# [17] = second compound 3.16 µM, first compound 0.00316 µM
# [18] = second compound 3.16 µM, first compound 0.01 µM
# [19] = second compound 3.16 µM, first compound 0.0316 µM
# [20] = second compound 3.16 µM, first compound 0.1 µM
# [21] = second compound 10 µM, first compound 0.00316 µM
# [22] = second compound 10 µM, first compound 0.01 µM
# [23] = second compound 10 µM, first compound 0.0316 µM
# [24] = second compound 10 µM, first compound 0.1 µM
# [25] = second compound 0.0316 µM, first compound 0.316 µM
# [26] = second compound 0.0316 µM, first compound 1 µM
# [27] = second compound 0.1 µM, first compound 0.316 µM
# [28] = second compound 0.1 µM, first compound 1 µM
# [29] = second compound 0.316 µM, first compound 0.316 µM
# [30] = second compound 0.316 µM, first compound 1 µM
# [31] = second compound 1 µM, first compound 0.316 µM
# [32] = second compound 1 µM, first compound 1 µM
# [33] = second compound 3.16 µM, first compound 0.316 µM
# [34] = second compound 3.16 µM, first compound 1 µM
# [35] = second compound 10 µM, first compound 0.316 µM
# [36] = second compound 10 µM, first compound 1 µM
# [37] = second compound 0.0316 µM, first compound 3.16 µM
# [38] = second compound 0.0316 µM, first compound 10 µM
# [39] = second compound 0.1 µM, first compound 3.16 µM
# [40] = second compound 0.1 µM, first compound 10 µM
# [41] = second compound 0.316 µM, first compound 3.16 µM
# [42] = second compound 0.316 µM, first compound 10 µM
# [43] = second compound 1 µM, first compound 3.16 µM
# [44] = second compound 1 µM, first compound 10 µM
# [45] = second compound 3.16 µM, first compound 3.16 µM
# [46] = second compound 3.16 µM, first compound 10 µM
# [47] = second compound 10 µM, first compound 3.16 µM
# [48] = second compound 10 µM, first compound 10 µM
# 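Further: spheroids exposed to compounds for one week before readout.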
# 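Wherever viability, T/C is given: percent viability relative to DMSO vehicle wells taken as 100%.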
smiles,measurement,setting,value
CC[C@@]1(O)C(=O)OCc2c1cc1n(c2=O)Cc2cc3c(CN(C)C)c(O)ccc3nc2-1 + Cc1cccc(N(C)C(=O)C2C(O)CCN2c2nc(C)cc(C(F)(F)F)c2C#N)c1,IC50,second compound 0.0316 µM,> 100 nM
same,IC50,second compound 0.1 µM,> 100 nM
same,IC50,second compound 0.316 µM,> 100 nM
same,IC50,second compound 1 µM,> 100 nM
same,IC50,second compound 3.16 µM,> 100 nM
same,IC50,second compound 10 µM,> 100 nM
same,"viability, T/C","second compound 0.0316 µM, first compound 0.000316 µM",96.5%
same,"viability, T/C","second compound 0.0316 µM, first compound 0.001 µM",100%
same,"viability, T/C",[1],97.7%
same,"viability, T/C",[2],101%
same,"viability, T/C",[3],105%
same,"viability, T/C",[4],82.5%
same,"viability, T/C","second compound 0.1 µM, first compound 0.000316 µM",99.2%
same,"viability, T/C","second compound 0.1 µM, first compound 0.001 µM",101%
same,"viability, T/C",[5],101%
same,"viability, T/C",[6],116%
same,"viability, T/C",[7],107%
same,"viability, T/C",[8],79.6%
same,"viability, T/C","second compound 0.316 µM, first compound 0.000316 µM",114%
same,"viability, T/C","second compound 0.316 µM, first compound 0.001 µM",104%
same,"viability, T/C",[9],92.3%
same,"viability, T/C",[10],114%
same,"viability, T/C",[11],96.7%
same,"viability, T/C",[12],84.3%
same,"viability, T/C","second compound 1 µM, first compound 0.000316 µM",101%
same,"viability, T/C","second compound 1 µM, first compound 0.001 µM",93.5%
same,"viability, T/C",[13],112%
same,"viability, T/C",[14],112%
same,"viability, T/C",[15],103%
same,"viability, T/C",[16],77.2%
same,"viability, T/C","second compound 3.16 µM, first compound 0.000316 µM",101%
same,"viability, T/C","second compound 3.16 µM, first compound 0.001 µM",94.2%
same,"viability, T/C",[17],93.2%
same,"viability, T/C",[18],101%
same,"viability, T/C",[19],103%
same,"viability, T/C",[20],78.8%
same,"viability, T/C","second compound 10 µM, first compound 0.000316 µM",100%
same,"viability, T/C","second compound 10 µM, first compound 0.001 µM",98.9%
same,"viability, T/C",[21],95.3%
same,"viability, T/C",[22],103%
same,"viability, T/C",[23],97.8%
same,"viability, T/C",[24],64.4%
CCc1c2c(nc3ccc(O)cc13)-c1cc3c(c(=O)n1C2)COC(=O)[C@]3(O)CC + Cc1cccc(N(C)C(=O)C2C(O)CCN2c2nc(C)cc(C(F)(F)F)c2C#N)c1,IC50,second compound 0.0316 µM,87.2 nM
same,IC50,second compound 0.1 µM,91.2 nM
same,IC50,second compound 0.316 µM,84.5 nM
same,IC50,second compound 1 µM,78.6 nM
same,IC50,second compound 3.16 µM,65.9 nM
same,IC50,second compound 10 µM,47.4 nM
same,"viability, T/C",[1],104%
same,"viability, T/C",[2],97%
same,"viability, T/C",[3],72.8%
same,"viability, T/C",[4],49.3%
same,"viability, T/C",[25],24.6%
same,"viability, T/C",[26],20.8%
same,"viability, T/C",[5],114%
same,"viability, T/C",[6],90.5%
same,"viability, T/C",[7],71.9%
same,"viability, T/C",[8],44.5%
same,"viability, T/C",[27],33.5%
same,"viability, T/C",[28],16.1%
same,"viability, T/C",[9],109%
same,"viability, T/C",[10],87.1%
same,"viability, T/C",[11],69.7%
same,"viability, T/C",[12],48.1%
same,"viability, T/C",[29],26.9%
same,"viability, T/C",[30],18.6%
same,"viability, T/C",[13],111%
same,"viability, T/C",[14],92.9%
same,"viability, T/C",[15],79.9%
same,"viability, T/C",[16],40.1%
same,"viability, T/C",[31],26%
same,"viability, T/C",[32],18.7%
same,"viability, T/C",[17],116%
same,"viability, T/C",[18],80.7%
same,"viability, T/C",[19],67.8%
same,"viability, T/C",[20],41.6%
same,"viability, T/C",[33],27.5%
same,"viability, T/C",[34],22.1%
same,"viability, T/C",[21],97.7%
same,"viability, T/C",[22],68.7%
same,"viability, T/C",[23],62.3%
same,"viability, T/C",[24],39%
same,"viability, T/C",[35],25%
same,"viability, T/C",[36],23.1%
Nc1ccn(C2OC(CO)C(O)C2(F)F)c(=O)n1 (stereo not drawn) + Cc1cccc(N(C)C(=O)C2C(O)CCN2c2nc(C)cc(C(F)(F)F)c2C#N)c1,IC50,second compound 0.0316 µM,42.3 nM
same,IC50,second compound 0.1 µM,53.6 nM
same,IC50,second compound 0.316 µM,58 nM
same,IC50,second compound 1 µM,49.8 nM
same,IC50,second compound 3.16 µM,57.5 nM
same,IC50,second compound 10 µM,59.3 nM
same,"viability, T/C",[3],55.2%
same,"viability, T/C",[4],36.6%
same,"viability, T/C",[25],22.8%
same,"viability, T/C",[26],30.8%
same,"viability, T/C",[37],29.6%
same,"viability, T/C",[38],27%
same,"viability, T/C",[7],62.2%
same,"viability, T/C",[8],37.8%
same,"viability, T/C",[27],23.4%
same,"viability, T/C",[28],28.1%
same,"viability, T/C",[39],40.2%
same,"viability, T/C",[40],28.8%
same,"viability, T/C",[11],66.7%
same,"viability, T/C",[12],36.1%
same,"viability, T/C",[29],26%
same,"viability, T/C",[30],25.7%
same,"viability, T/C",[41],34.4%
same,"viability, T/C",[42],28.9%
same,"viability, T/C",[15],61.9%
same,"viability, T/C",[16],32.2%
same,"viability, T/C",[31],25.4%
same,"viability, T/C",[32],28.8%
same,"viability, T/C",[43],26.7%
same,"viability, T/C",[44],27.1%
same,"viability, T/C",[19],62.5%
same,"viability, T/C",[20],40.4%
same,"viability, T/C",[33],25.5%
same,"viability, T/C",[34],29.4%
same,"viability, T/C",[45],28.2%
same,"viability, T/C",[46],26.8%
same,"viability, T/C",[23],63.9%
same,"viability, T/C",[24],40.5%
same,"viability, T/C",[35],26%
same,"viability, T/C",[36],27.1%
same,"viability, T/C",[47],30.1%
same,"viability, T/C",[48],26.2%
O=C(c1cc(Cc2n[nH]c(=O)c3ccccc23)ccc1F)N1CCN(C(=O)C2CC2)CC1 + Cc1cccc(N(C)C(=O)C2C(O)CCN2c2nc(C)cc(C(F)(F)F)c2C#N)c1,IC50,second compound 0.0316 µM,> 10000 nM
same,IC50,second compound 0.1 µM,> 10000 nM
same,IC50,second compound 0.316 µM,> 10000 nM
same,IC50,second compound 1 µM,> 10000 nM
same,IC50,second compound 3.16 µM,> 10000 nM
same,IC50,second compound 10 µM,> 10000 nM
same,"viability, T/C",[3],105%
same,"viability, T/C",[4],93.8%
same,"viability, T/C",[25],102%
same,"viability, T/C",[26],98.4%
same,"viability, T/C",[37],103%
same,"viability, T/C",[38],87.8%
same,"viability, T/C",[7],103%
same,"viability, T/C",[8],98.4%
same,"viability, T/C",[27],107%
same,"viability, T/C",[28],107%
same,"viability, T/C",[39],99.9%
same,"viability, T/C",[40],94.3%
same,"viability, T/C",[11],95.3%
same,"viability, T/C",[12],102%
same,"viability, T/C",[29],108%
same,"viability, T/C",[30],98.9%
same,"viability, T/C",[41],108%
same,"viability, T/C",[42],89.2%
same,"viability, T/C",[15],111%
same,"viability, T/C",[16],106%
same,"viability, T/C",[31],105%
same,"viability, T/C",[32],101%
same,"viability, T/C",[43],102%
same,"viability, T/C",[44],78%
same,"viability, T/C",[19],103%
same,"viability, T/C",[20],102%
same,"viability, T/C",[33],95.6%
same,"viability, T/C",[34],103%
same,"viability, T/C",[45],97.3%
same,"viability, T/C",[46],88.4%
same,"viability, T/C",[23],113%
same,"viability, T/C",[24],101%
same,"viability, T/C",[35],100%
same,"viability, T/C",[36],104%
same,"viability, T/C",[47],110%
same,"viability, T/C",[48],86.6%
